Experimental findings from patent US10973912B2, “Treatment for myopathy” (Children's Medical Center Corporation, priority 2015, dated 2021) are described below.

The test system of the assay is ryr1b skeletal muscles. Put plainly: Tetanic force per cross-sectional area in larvae at 5 dpf. It counts as in vivo, zebrafish (Danio rerio). The method, then:
Tetanic forces were measured following stimulation with 9 biphasic, 200 μs square-wave pulses at 300 Hz (WT-DMSO: 45.6±4.2 kPa, n=5; WT-NIF: 52.8±4.1 kPa, n=5; ryr1b-DMSO: 11.4±1.3 kPa, n=7; ryr1b-NIF: 25.4±4.0 kPa, n=7). Significance was determined by a one-way ANOVA (F=29.61, P<0.0001), followed by pairwise Tukey's HSD post hoc tests. […] Non-linear regression data of curves were not statistically different, as determined by an extra sum-of-squares F test (P=1.0).
Ryr1b mutants display weaker muscle contractions than wild-type clutchmates as early as 2 dpf^30. To investigate whether […] affects contractile strength in zebrafish, ryr1b mutants and unaffected controls were treated with the compound for several days. At 5 dpf, electrophysiological studies were performed with the help of Dr. Jeffrey Widrick.

For `O=C(N/N=C/c1ccc([N+](=O)[O-])o1)c1ccc(O)cc1` [Nifuroxazide], the “tetanic forces in treated mutants” value is “restored to wild-type levels”. Under “ryr1b, n=7, 9 biphasic 200 μs pulses at 300 Hz, ryr1b-DMSO 11.4±1.3, WT-DMSO 45.6±4.2”, the “tetanic force per cross-sectional area, ryr1b mutants” value was 25.4±4.0 kPa.
